Data on three compounds can be found in patent publication US12479847B2 (DANA-FARBER CANCER INSTITUTE, INC., priority 2019, dated 2025).

Holding throughout (experiment): KINOMEscan (ScanMAX) kinase profiling
Common to all, as to type: binding

Test [1] concerns the target T1, panel of 468 kinases (Homo sapiens, UniProt O43683).
T1 construct: purchased KINOMEscan (ScanMAX) service
The conditions noted are these: BUB1; 1 μM; read-out: % control.

Test [2] has as its target T2, panel of 468 kinases (Homo sapiens, UniProt P0C264).
T2 construct: purchased KINOMEscan (ScanMAX) service
T2 sequence (P0C264 1-359): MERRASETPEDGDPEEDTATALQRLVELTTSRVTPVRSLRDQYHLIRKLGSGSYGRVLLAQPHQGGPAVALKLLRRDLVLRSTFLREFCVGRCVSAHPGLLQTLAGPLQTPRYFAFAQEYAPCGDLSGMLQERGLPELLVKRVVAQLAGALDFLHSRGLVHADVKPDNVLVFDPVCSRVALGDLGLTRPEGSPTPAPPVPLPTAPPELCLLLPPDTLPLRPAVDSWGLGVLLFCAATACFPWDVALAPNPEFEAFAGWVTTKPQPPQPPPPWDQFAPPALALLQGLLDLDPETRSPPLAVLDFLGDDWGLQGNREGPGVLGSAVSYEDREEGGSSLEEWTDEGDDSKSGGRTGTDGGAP
The settings on record: SgK110; 1 μM; read-out: % control.

Test [3] addresses T3, panel of 468 kinases (Homo sapiens, UniProt P00533, L858R).
T3 construct: purchased KINOMEscan (ScanMAX) service
The settings on record: EGFR(L858R); 1 μM; read-out: % control.

Test [4] has as its target T4, panel of 468 kinases (Homo sapiens, UniProt O15146).
T4 construct: purchased KINOMEscan (ScanMAX) service
T4 sequence (O15146 24-869): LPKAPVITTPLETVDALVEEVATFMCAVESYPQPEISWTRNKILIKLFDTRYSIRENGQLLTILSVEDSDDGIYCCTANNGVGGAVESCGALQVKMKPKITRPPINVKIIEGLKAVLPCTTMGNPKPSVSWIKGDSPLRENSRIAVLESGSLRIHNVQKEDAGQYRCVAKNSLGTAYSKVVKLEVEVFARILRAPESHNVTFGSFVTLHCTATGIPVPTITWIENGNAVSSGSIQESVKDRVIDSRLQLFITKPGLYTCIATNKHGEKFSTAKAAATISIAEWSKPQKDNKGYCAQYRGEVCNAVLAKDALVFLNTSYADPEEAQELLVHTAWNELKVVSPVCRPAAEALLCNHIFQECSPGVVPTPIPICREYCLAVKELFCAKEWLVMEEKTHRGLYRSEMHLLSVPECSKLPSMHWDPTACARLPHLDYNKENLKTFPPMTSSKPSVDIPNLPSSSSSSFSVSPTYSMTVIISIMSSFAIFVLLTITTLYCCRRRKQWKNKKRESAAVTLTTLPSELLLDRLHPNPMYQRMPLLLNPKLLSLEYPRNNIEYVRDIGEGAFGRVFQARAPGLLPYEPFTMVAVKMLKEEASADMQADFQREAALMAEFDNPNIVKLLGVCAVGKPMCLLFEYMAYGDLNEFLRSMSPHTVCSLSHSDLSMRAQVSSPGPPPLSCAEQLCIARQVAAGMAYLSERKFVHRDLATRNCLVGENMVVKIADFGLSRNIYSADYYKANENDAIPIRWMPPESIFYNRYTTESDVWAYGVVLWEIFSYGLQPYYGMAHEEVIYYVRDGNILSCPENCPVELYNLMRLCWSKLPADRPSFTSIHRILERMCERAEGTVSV
The conditions noted are these: MUSK; 1 μM; read-out: % control.

Test [5] addresses T5, panel of 468 kinases (Homo sapiens, UniProt P21709).
T5 construct: purchased KINOMEscan (ScanMAX) service
T5 sequence (P21709 26-976): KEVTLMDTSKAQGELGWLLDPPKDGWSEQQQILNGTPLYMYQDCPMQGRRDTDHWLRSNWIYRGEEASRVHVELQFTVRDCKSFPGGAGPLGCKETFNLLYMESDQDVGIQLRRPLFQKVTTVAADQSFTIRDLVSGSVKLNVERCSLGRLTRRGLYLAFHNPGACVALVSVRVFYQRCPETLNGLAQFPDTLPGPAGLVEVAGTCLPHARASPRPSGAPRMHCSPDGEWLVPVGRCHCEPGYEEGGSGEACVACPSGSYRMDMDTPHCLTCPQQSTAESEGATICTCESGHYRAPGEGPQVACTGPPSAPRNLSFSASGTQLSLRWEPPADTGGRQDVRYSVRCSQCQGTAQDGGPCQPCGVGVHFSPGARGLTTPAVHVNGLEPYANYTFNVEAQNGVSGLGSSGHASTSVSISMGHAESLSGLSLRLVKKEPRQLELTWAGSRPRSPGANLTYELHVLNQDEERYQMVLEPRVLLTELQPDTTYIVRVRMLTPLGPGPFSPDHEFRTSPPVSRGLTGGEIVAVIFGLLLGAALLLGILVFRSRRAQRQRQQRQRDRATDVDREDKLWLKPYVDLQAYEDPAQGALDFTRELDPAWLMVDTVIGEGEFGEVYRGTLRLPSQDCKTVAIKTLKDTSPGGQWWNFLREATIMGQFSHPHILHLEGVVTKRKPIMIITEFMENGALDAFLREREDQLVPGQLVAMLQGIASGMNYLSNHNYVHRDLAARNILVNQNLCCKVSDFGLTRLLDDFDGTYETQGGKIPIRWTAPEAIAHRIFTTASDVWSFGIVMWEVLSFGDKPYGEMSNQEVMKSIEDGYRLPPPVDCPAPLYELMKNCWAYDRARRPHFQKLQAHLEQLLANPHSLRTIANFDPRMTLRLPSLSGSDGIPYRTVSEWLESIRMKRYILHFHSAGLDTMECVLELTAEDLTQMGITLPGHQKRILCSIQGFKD
The conditions noted are these: EPHA1; 1 μM; read-out: % control.

Test [6] has as its target T6, panel of 468 kinases (Homo sapiens, UniProt Q00535).
T6 construct: purchased KINOMEscan (ScanMAX) service
The conditions noted are these: CDK5; 1 μM; read-out: % control.

Test [7] deals with T7, panel of 468 kinases (Homo sapiens, UniProt Q8TDX7).
T7 construct: purchased KINOMEscan (ScanMAX) service
T7 sequence (Q8TDX7 whole entry): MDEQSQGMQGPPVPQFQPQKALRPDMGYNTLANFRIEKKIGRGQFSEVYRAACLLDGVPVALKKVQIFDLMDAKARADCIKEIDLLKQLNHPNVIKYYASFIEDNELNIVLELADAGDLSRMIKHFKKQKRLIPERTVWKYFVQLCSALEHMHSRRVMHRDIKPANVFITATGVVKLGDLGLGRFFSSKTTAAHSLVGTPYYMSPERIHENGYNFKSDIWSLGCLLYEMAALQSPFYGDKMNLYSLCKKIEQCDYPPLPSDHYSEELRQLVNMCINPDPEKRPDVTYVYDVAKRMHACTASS
The conditions noted are these: NEK7; 1 μM; read-out: % control.

T6 sequence (Q00535 whole entry): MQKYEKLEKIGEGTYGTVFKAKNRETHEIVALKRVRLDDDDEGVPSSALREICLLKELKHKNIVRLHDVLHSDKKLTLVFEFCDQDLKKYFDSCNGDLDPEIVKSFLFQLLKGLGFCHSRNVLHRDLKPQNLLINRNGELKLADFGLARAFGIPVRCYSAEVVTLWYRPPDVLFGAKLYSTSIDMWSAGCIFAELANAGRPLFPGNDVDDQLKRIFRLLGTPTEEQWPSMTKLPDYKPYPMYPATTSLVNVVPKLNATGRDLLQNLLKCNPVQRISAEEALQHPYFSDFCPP
T1 sequence (O43683 whole entry): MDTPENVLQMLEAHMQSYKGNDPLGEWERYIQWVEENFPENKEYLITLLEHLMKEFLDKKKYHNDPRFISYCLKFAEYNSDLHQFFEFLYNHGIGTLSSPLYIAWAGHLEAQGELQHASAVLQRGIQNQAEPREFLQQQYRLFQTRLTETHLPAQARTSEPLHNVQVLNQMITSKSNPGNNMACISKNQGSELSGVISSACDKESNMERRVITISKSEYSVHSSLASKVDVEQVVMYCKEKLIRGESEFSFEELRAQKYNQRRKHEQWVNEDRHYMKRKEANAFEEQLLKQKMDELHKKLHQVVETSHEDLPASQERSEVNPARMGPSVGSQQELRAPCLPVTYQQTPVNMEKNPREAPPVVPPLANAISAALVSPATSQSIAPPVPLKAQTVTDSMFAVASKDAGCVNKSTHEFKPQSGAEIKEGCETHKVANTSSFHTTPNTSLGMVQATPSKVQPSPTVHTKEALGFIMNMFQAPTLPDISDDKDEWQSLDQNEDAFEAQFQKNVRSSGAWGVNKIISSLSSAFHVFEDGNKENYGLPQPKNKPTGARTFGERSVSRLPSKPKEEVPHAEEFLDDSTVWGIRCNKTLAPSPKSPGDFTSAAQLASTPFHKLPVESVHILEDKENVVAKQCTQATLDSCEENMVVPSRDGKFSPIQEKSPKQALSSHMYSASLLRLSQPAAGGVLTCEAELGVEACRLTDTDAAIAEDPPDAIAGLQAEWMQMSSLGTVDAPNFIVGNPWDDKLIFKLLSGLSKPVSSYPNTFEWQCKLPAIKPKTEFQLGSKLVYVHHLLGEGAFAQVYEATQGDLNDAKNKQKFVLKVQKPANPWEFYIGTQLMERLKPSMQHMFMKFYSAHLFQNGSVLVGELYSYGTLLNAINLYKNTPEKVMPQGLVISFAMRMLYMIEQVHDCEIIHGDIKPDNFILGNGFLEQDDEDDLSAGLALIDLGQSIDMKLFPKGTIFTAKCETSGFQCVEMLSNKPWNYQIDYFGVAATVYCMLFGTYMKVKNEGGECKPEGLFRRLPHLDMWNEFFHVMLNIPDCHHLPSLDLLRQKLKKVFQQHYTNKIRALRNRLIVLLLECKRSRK
T3 sequence (P00533 25-1210 L858R): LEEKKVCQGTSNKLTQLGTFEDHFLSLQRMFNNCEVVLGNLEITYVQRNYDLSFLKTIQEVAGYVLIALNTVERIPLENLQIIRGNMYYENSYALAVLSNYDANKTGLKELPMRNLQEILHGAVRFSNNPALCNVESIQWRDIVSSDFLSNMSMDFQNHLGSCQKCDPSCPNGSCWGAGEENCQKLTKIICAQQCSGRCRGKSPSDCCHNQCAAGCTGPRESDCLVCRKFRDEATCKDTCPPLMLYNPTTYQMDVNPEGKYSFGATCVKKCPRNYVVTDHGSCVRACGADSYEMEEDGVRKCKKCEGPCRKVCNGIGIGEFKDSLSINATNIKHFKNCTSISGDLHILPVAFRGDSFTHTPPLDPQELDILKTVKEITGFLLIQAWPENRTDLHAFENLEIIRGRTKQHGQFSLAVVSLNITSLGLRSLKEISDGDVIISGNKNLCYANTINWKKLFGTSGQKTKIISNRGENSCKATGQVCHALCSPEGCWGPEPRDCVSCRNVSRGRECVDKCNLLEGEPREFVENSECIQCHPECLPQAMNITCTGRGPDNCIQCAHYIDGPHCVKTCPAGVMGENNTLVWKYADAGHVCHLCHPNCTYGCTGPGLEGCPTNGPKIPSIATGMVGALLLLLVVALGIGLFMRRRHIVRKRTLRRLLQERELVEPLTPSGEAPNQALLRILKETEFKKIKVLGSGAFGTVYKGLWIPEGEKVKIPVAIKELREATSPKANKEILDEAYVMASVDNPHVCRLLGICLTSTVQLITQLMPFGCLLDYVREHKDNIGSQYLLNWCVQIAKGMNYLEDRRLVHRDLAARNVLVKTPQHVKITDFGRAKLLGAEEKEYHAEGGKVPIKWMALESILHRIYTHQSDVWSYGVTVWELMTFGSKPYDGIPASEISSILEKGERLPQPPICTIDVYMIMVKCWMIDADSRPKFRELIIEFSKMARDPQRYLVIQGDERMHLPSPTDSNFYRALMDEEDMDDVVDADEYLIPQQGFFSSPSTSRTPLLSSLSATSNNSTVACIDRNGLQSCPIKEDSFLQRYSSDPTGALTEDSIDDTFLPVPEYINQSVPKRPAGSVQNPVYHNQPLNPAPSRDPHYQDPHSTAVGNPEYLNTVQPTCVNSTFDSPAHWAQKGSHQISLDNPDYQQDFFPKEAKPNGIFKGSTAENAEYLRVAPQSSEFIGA

As for `CNc1nc(Nc2ccc(S(=O)(=O)N3CCC(N4CCOCC4)CC3)cc2OC)nc2[nH]cc(Cl)c12` [Compound 12, 5-chloro-N2-(2-methoxy-4-((4-morpholinopiperidin-1-yl)sulfonyl)phenyl)-N4-methyl-7H-pyrrolo[2,3-d]pyrimidine-2,4-diamine], the remaining binding at 1 µM at panel of 468 kinases [1] is 60%; on panel of 468 kinases [2] it was 92%; at panel of 468 kinases [3] it was 100%; on panel of 468 kinases [4], 98%; on panel of 468 kinases [5], 100%; at panel of 468 kinases [6] it was 100%. For the same compound, at panel of 468 kinases [7], the remaining binding at 1 µM was 100%.

As to `CNc1nc(Nc2ccc(C(=O)N3CCC(N4CCOCC4)CC3)c3c2OCO3)nc2[nH]cc(Cl)c12` [Compound 75, (7-((5-chloro-4-(methylamino)-7H-pyrrolo[2,3-d]pyrimidin-2-yl)amino)benzo[d][1,3]dioxol-4-yl)(4-morpholinopiperidin-1-yl)methanone], the remaining binding at 1 µM at panel of 468 kinases [1] came out at 49%; on panel of 468 kinases [2], 100%; at panel of 468 kinases [3], 100%; on panel of 468 kinases [4] it was 21%; at panel of 468 kinases [5], 100%; on panel of 468 kinases [6], 100%. At panel of 468 kinases [7], the remaining binding at 1 µM amounted to 99%.

With `CNc1nc(Nc2ccc(P3(=O)CCN(C4CCOCC4)CC3)cc2OC)nc2[nH]cc(Cl)c12` [Compound 77, 4-(4-((5-chloro-4-(methylamino)-7H-pyrrolo[2,3-d]pyrimidin-2-yl)amino)-3-methoxyphenyl)-1-(tetrahydro-2H-pyran-4-yl)-1,4-azaphosphinane 4-oxide], the remaining binding at 1 µM stood at 61% at panel of 468 kinases [1]; 98% on panel of 468 kinases [2]; 76% on panel of 468 kinases [3]; 72% on panel of 468 kinases [4]; 100% on panel of 468 kinases [5]; 100% on panel of 468 kinases [6]. Moreover, the remaining binding at 1 µM at panel of 468 kinases [7] was found to be 100%.
